# Data reported in PubChem BioAssay AID1963972 (Molecular Pharmacology Branch, DTP, NCI, 2024).
# pIC50: −log10 of the molar value.
# System: 945468-187-T-J2-PDC spheroids viability
# Assay: Anticancer human tumor 945468-187-T-J2-PDC patient-derived rectal carcinoma cell line growth inhibition [PI3K]
# Conditions: spheroids with HUVEC and MSC; for pIC50: curve of first compound; for viability, T/C: stronger effect = lower value
# Source text: Combinatorial screen of targeted agents with the PI3K inhibitors inavolisib, alpelisib, duvelisib, and copanlisib in multi-cell type tumor spheroids
# A high-throughput screen of multi-cell type tumor spheroids was designed to identify active combinations of targeted small molecules and PI3K pathway inhibitors. Complex spheroids include a stromal component modeled by human endothelial cells (HUVEC) and fibroblasts modeled by human mesenchymal stem cells (MSCs). The concentration ranges selected for each drug and investigational agent were based upon clinically achievable concentrations if the clinical Cmax of the agent was known.
# Compounds. The drugs and investigational agents: inavolisib (NSC800729), alpelisib (NSC765974), duvelisib (NSC772469), copanlisib (NSC816437), ipatasertib (NSC767898), afuresertib (NSC778305), talazoparib (NSC767125), sapanisertib (NSC764658), selumetinib (NSC741078), tovorafenib (DAY101, NSC766906), vemurafenib (NSC761431), ravoxertinib (NSC781343), sotorasib (NSC818433), MRTX1133 (NSC 836407), abemaciclib (NSC 768073), palbociclib (NSC758247), venetoclax (NSC 766270), SY5609 (NSC837396), enzalutamide (NSC755605), and darolutamide (NSC825331), were obtained from the National Cancer Institute (NCI) Developmental Therapeutics Program Chemical Repository. The FDA-approved anticancer drug set is available from the NCI Developmental Therapeutics Program. […] The stock solutions were prepared in dimethyl sulfoxide (DMSO, Sigma-Aldrich, St. Louis, MO, cat. D2650) at 800-fold the tested concentration and stored at -70 degrees C prior to their use. All drugs and investigational agents were tested over a range starting from a high concentration at or near the clinical Cmax and decreasing in half-log increments. If the clinical Cmax for an agent had not been determined, the highest concentration tested was 10 microM.
# Cell Culture. All cells were maintained in an incubator at 37 degrees C and 5% CO2 with 95% humidity. The PDC lines were cultured according to standard operating procedures established by the NCI PDMR (https://pdmr.cancer.gov/sops/default.htm). All PDCs were thawed and cultured in Matrigel-coated flasks prepared with a working solution of 1X Ham's F-12 nutrient mix, without supplementation (Invitrogen, Waltham, MA, cat. 11765054), 100 U/mL penicillin-streptomycin (Invitrogen, cat. 15140122), and 2.5% Matrigel (Corning Inc., Corning, NY, cat. 354248) for the first three passages. The 354836-022-R-J1-PDC, 475296-252-R-J1-PDC, and 997726-040-R-J2-PDC lines were cultured in 6A media, which includes advanced DMEM/F-12 (Thermo Fisher Scientific, cat. 12634028), 10 mM HEPES (Thermo Fisher Scientific, cat. 15630080), 1X GlutaMAX supplement (Thermo Fisher Scientific, cat. 35050061), 0.1 mg/mL primocin (InvivoGen, San Diego, CA, cat. ant-pm-2), 10% defined fetal bovine serum, heat inactivated (HyClone Laboratories Inc., Logan, UT, cat. SH30070.03HI), 50% L-WRN conditioned media (ATCC, cat. CRL-3276), 1.25 mM N-Acetyl-L-cysteine (Sigma-Aldrich, cat. A9165), 10 mM nicotinamide (Sigma-Aldrich, cat. N0636), 1X B-27 supplement (Thermo Fisher Scientific, cat. 17504044), 1X N-2 supplement (Thermo Fisher Scientific, cat. 17502048), and 10 microM Y-27632 dihydrochloride (Tocris Bioscience, Bristol, United Kingdom, cat. 1254). The 624824-186-R-J2-PDC line was cultured in 6C/Colon 1B media, which includes all 6A media components plus 50 ng/mL human EGF recombinant protein (Thermo Fisher Scientific, cat. PHG0311). […]
# 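Also: spheroids exposed to compounds for seven days before reading.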
smiles,measurement,setting,value
CNC(=O)c1ccc(N2C(=S)N(c3ccc(C#N)c(C(F)(F)F)c3)C(=O)C2(C)C)cc1F + CC(Nc1ccc2c(c1)OCCn1cc(N3C(=O)OCC3C(F)F)nc1-2)C(N)=O,pIC50,second compound 0.00316 µM,< 5.00
same,pIC50,second compound 0.01 µM,< 5.00
same,pIC50,second compound 0.0316 µM,< 5.00
same,pIC50,second compound 0.1 µM,< 5.00
same,pIC50,second compound 0.316 µM,< 5.00
same,pIC50,second compound 1 µM,< 5.00
same,"viability, T/C","second compound 0.00316 µM, first compound 0.0316 µM",96.3%
same,"viability, T/C","second compound 0.00316 µM, first compound 0.1 µM",84.8%
same,"viability, T/C","second compound 0.00316 µM, first compound 0.316 µM",123%
same,"viability, T/C","second compound 0.00316 µM, first compound 1 µM",95%
same,"viability, T/C","second compound 0.00316 µM, first compound 3.16 µM",83.4%
same,"viability, T/C","second compound 0.00316 µM, first compound 10 µM",80.1%
same,"viability, T/C","second compound 0.01 µM, first compound 0.0316 µM",95.5%
same,"viability, T/C","second compound 0.01 µM, first compound 0.1 µM",82%
same,"viability, T/C","second compound 0.01 µM, first compound 0.316 µM",85.4%
same,"viability, T/C","second compound 0.01 µM, first compound 1 µM",103%
same,"viability, T/C","second compound 0.01 µM, first compound 3.16 µM",96.8%
same,"viability, T/C","second compound 0.01 µM, first compound 10 µM",84.4%
same,"viability, T/C","second compound 0.0316 µM, first compound 0.0316 µM",93.9%
same,"viability, T/C","second compound 0.0316 µM, first compound 0.1 µM",78.2%
same,"viability, T/C","second compound 0.0316 µM, first compound 0.316 µM",102%
same,"viability, T/C","second compound 0.0316 µM, first compound 1 µM",103%
same,"viability, T/C","second compound 0.0316 µM, first compound 3.16 µM",99.4%
same,"viability, T/C","second compound 0.0316 µM, first compound 10 µM",90.3%
same,"viability, T/C","second compound 0.1 µM, first compound 0.0316 µM",103%
same,"viability, T/C","second compound 0.1 µM, first compound 0.1 µM",124%
same,"viability, T/C","second compound 0.1 µM, first compound 0.316 µM",96.4%
same,"viability, T/C","second compound 0.1 µM, first compound 1 µM",92.5%
same,"viability, T/C","second compound 0.1 µM, first compound 3.16 µM",86.5%
same,"viability, T/C","second compound 0.1 µM, first compound 10 µM",76%
same,"viability, T/C","second compound 0.316 µM, first compound 0.0316 µM",91%
same,"viability, T/C","second compound 0.316 µM, first compound 0.1 µM",95.5%
same,"viability, T/C","second compound 0.316 µM, first compound 0.316 µM",88.6%
same,"viability, T/C","second compound 0.316 µM, first compound 1 µM",88.6%
same,"viability, T/C","second compound 0.316 µM, first compound 3.16 µM",89.1%
same,"viability, T/C","second compound 0.316 µM, first compound 10 µM",71.6%
same,"viability, T/C","second compound 1 µM, first compound 0.0316 µM",84.4%
same,"viability, T/C","second compound 1 µM, first compound 0.1 µM",88.6%
same,"viability, T/C","second compound 1 µM, first compound 0.316 µM",86.7%
same,"viability, T/C","second compound 1 µM, first compound 1 µM",87.4%
same,"viability, T/C","second compound 1 µM, first compound 3.16 µM",64.4%
same,"viability, T/C","second compound 1 µM, first compound 10 µM",79.6%
